# In the supplement of paper PMC11208160:
# Assay: recombinant barcode read abundance after kanamycin selection (control-corrected) (log10(CPM+1)); higher = more efficient recombination; sequences stand for … in AGTGCAGAGAAAATCGGCCAGTTTTCTCTGCCTGCAGTCCGCATGCCGT…AGATTTATGCAGCGGACTGCCTTTCTCCCAAAGTGATAAACCGGACAGTATCATGGACCGGTTTTCCCGGTAATCCGTATTTGCAAGGTTGGTTTCACT; site = the 11-nt target
# In short: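 Pooled E. coli screen pairing targets with IS621 bridge RNA target-binding loops. Each oligo (promoter, target, barcode, J23119-driven first 104 bridge RNA bases) was Gibson-cloned into a vector with the remaining 73 bp and T7-inducible recombinase, then co-electroporated with a donor plasmid. Two replicates each were plated on chloramphenicol/ampicillin LB agar (control) or chloramphenicol/ampicillin/kanamycin with 0.1 mM IPTG. Recombination efficiency is recombinant-junction barcode counts as CPM, averaged, control-corrected, reported as log10(CPM+1).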
# 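Further: IS621 recombinase and bridge RNA in Escherichia coli cells.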
row,Sequence,recombinant barcode read abundance (log10)
1,CTACAGACTTGGGTTCTAACCTGTTGCGC (site CTACAGACTCC),0.221
2,CTACAGACTTGGGTTCTAACCTGTTGCGC (site CTACAGACTGC),1.21
3,CTACAGACTTGGGTTCTAACCTGTTGCGC (site CTACAGACTTC),0.503
4,CTACAGACTTGGGTTCTAACCTGTTGCGG (site CTACAGACTAC),0.088
5,CTACAGACTTGGGTTCTAACCTGTTGCGG (site CTACAGACTCC),2.61
6,CTACAGACTTGGGTTCTAACCTGTTGCGG (site CTACAGACTGC),0.141
7,CTACAGACTTGGGTTCTAACCTGTTGCGG (site CTACAGACTTC),1.31
8,CTACAGACTTGGGTTCTAACCTGTTGCGT (site CTACAGACTAC),1.81
9,CTACAGACTTGGGTTCTAACCTGTTGCGT (site CTACAGACTCC),0.229
10,CTACAGACTTGGGTTCTAACCTGTTGCGT (site CTACAGACTGC),0.155
11,CTACAGACTTGGGTTCTAACCTGTTGCGT (site CTACAGACTTC),0.238
12,CTACATTCTTGGGTTCTAACCTGTTGCGT (site CTAAATACTAC),0.0752
13,CTACATTCTTGGGTTCTAACCTGTTGCGT (site CTACATTCTAC),1.52
14,CTACGATCTTGGGTTCTAACCTGTTGCAC (site CTACGATCTGT),0.737
15,CTACGATCTTGGGTTCTAACCTGTTGCAC (site CTACGCTCTGT),0.162
16,CTACGATCTTGGGTTCTAACCTGTTGCAC (site CTACGGTCTGT),0.375
17,CTACGATCTTGGGTTCTAACCTGTTGCAC (site CTACGTTCTGT),0.365
18,CTACGCTCTTGGGTTCTAACCTGTTGCGA (site CTACGCTCTTC),1.52
19,CTACGCTCTTGGGTTCTAACCTGTTGCGA (site CTAGGCTCTCC),0.452
20,CTACGGTCTTGGGTTCTAACCTGTTGCAC (site CTACGATCTGT),0.256
21,CTACGGTCTTGGGTTCTAACCTGTTGCAC (site CTACGCTCTGT),0.238
22,CTACGGTCTTGGGTTCTAACCTGTTGCAC (site CTACGGTCTGT),0.404

row,Sequence,recombinant barcode read abundance (log10)
1,CTACGGTCTTGGGTTCTAACCTGTTGCAC (site CTACGTTCTGT),0.0783
2,CTACGTCCTTGGGTTCTAACCTGTTGCTC (site CTACGTCCTAA),0.191
3,CTACGTCCTTGGGTTCTAACCTGTTGCTC (site CTACGTCCTCA),0.942
4,CTACGTCCTTGGGTTCTAACCTGTTGCTC (site CTACGTCCTGA),0.91
5,CTACGTCCTTGGGTTCTAACCTGTTGCTC (site CTACGTCCTTA),0.0289
6,CTACGTTCTTGGGTTCTAACCTGTTGCAC (site CTACGATCTGT),0.0857
7,CTACGTTCTTGGGTTCTAACCTGTTGCAC (site CTACGCTCTGT),0
8,CTACGTTCTTGGGTTCTAACCTGTTGCAC (site CTACGGTCTGT),0.0816
9,CTACGTTCTTGGGTTCTAACCTGTTGCAC (site CTACGTTCTGT),1.1
10,CTACTAGCTTGGGTTCTAACCTGTTGCAG (site CTACTAGCTAT),0.173
11,CTACTAGCTTGGGTTCTAACCTGTTGCAG (site CTACTAGCTCT),2.5
12,CTACTAGCTTGGGTTCTAACCTGTTGCAG (site CTACTAGCTGT),0.0122
13,CTACTAGCTTGGGTTCTAACCTGTTGCAG (site CTACTAGCTTT),0.0541
14,CTACTAGCTTGGGTTCTAACCTGTTGCAT (site CTACTAGCTAT),1.18
15,CTACTAGCTTGGGTTCTAACCTGTTGCAT (site CTACTAGCTCT),0.115
16,CTACTAGCTTGGGTTCTAACCTGTTGCAT (site CTACTAGCTGT),0.167
17,CTACTAGCTTGGGTTCTAACCTGTTGCAT (site CTACTAGCTTT),0.139
18,CTAGAAGCTTGGGTTCTAACCTGTTGCGT (site CTAGAAGCTAC),2.52
19,CTAGAAGCTTGGGTTCTAACCTGTTGCGT (site CTAGGAGCTAC),1.05
20,CTAGACTCTTGGGTTCTAACCTGTTGCAA (site CTAGACTCTAT),0.644
21,CTAGACTCTTGGGTTCTAACCTGTTGCAA (site CTAGACTCTCT),0.287
22,CTAGACTCTTGGGTTCTAACCTGTTGCAA (site CTAGACTCTGT),0.0566

row,Sequence,recombinant barcode read abundance (log10)
1,CTAGACTCTTGGGTTCTAACCTGTTGCAA (site CTAGACTCTTT),2
2,CTAGACTCTTGGGTTCTAACCTGTTGCTC (site CTAGACTCTAA),0.0434
3,CTAGACTCTTGGGTTCTAACCTGTTGCTC (site CTAGACTCTCA),0.0281
4,CTAGACTCTTGGGTTCTAACCTGTTGCTC (site CTAGACTCTGA),2.84
5,CTAGACTCTTGGGTTCTAACCTGTTGCTC (site CTAGACTCTTA),0.275
6,CTAGACTCTTGGGTTCTAACCTGTTGCTT (site CTAGACTCTAA),2.89
7,CTAGACTCTTGGGTTCTAACCTGTTGCTT (site CTAGACTCTCA),0.304
8,CTAGACTCTTGGGTTCTAACCTGTTGCTT (site CTAGACTCTGA),0.0758
9,CTAGACTCTTGGGTTCTAACCTGTTGCTT (site CTAGACTCTTA),0.261
10,CTAGATGCTTGGGTTCTAACCTGTTGCGA (site AGTTCATCTAT),0.0418
11,CTAGATGCTTGGGTTCTAACCTGTTGCGA (site CTAGATGCTTC),1.94
12,CTAGATTCTTGGGTTCTAACCTGTTGCAT (site ACGATAACTTG),0.0921
13,CTAGATTCTTGGGTTCTAACCTGTTGCAT (site CTAGATTCTAT),2.61
14,CTAGCAACTTGGGTTCTAACCTGTTGCTT (site CTAGCAACTAA),0.26
15,CTAGCAACTTGGGTTCTAACCTGTTGCTT (site CTAGCAGCTAT),0.124
16,CTAGCAGCTTGGGTTCTAACCTGTTGCAT (site CTAGCAACTAA),0.197
17,CTAGCAGCTTGGGTTCTAACCTGTTGCAT (site CTAGCAGCTAT),0.434
18,CTAGCCACTTGGGTTCTAACCTGTTGCTA (site CTAGCCACTTA),1.01
19,CTAGCCACTTGGGTTCTAACCTGTTGCTA (site CTAGCGACTCA),0.38
20,CTAGGAACTTGGGTTCTAACCTGTTGCTA (site AGGTTCCCTCC),0.454
21,CTAGGAACTTGGGTTCTAACCTGTTGCTA (site CTAGGAACTTA),0.635
22,CTAGGAGCTTGGGTTCTAACCTGTTGCTC (site CTAGGAGCTAA),0.241

row,Sequence,recombinant barcode read abundance (log10)
1,CTAGGAGCTTGGGTTCTAACCTGTTGCTC (site CTAGGAGCTCA),0.222
2,CTAGGAGCTTGGGTTCTAACCTGTTGCTC (site CTAGGAGCTGA),0.885
3,CTAGGAGCTTGGGTTCTAACCTGTTGCTC (site CTAGGAGCTTA),0.126
4,CTAGTGACTTGGGTTCTAACCTGTTGCGA (site CTAGTGACTAC),0.0588
5,CTAGTGACTTGGGTTCTAACCTGTTGCGA (site CTAGTGACTCC),0.576
6,CTAGTGACTTGGGTTCTAACCTGTTGCGA (site CTAGTGACTGC),0.0599
7,CTAGTGACTTGGGTTCTAACCTGTTGCGA (site CTAGTGACTTC),1.99
8,CTAGTGACTTGGGTTCTAACCTGTTGCGG (site CTAGTGACTAC),0.0948
9,CTAGTGACTTGGGTTCTAACCTGTTGCGG (site CTAGTGACTCC),1.74
10,CTAGTGACTTGGGTTCTAACCTGTTGCGG (site CTAGTGACTGC),0.141
11,CTAGTGACTTGGGTTCTAACCTGTTGCGG (site CTAGTGACTTC),0.352
12,CTAGTGTCTTGGGTTCTAACCTGTTGCAC (site CTAGTCACTGT),0.198
13,CTAGTGTCTTGGGTTCTAACCTGTTGCAC (site CTAGTGTCTGT),1.88
14,CTAGTGTCTTGGGTTCTAACCTGTTGCTA (site CTAGTGTCTTA),2.72
15,CTAGTGTCTTGGGTTCTAACCTGTTGCTA (site GTAGTGTCTTA),0.0109
16,CTATAGGCTTGGGTTCTAACCTGTTGCCT (site ATATACGCTAG),0.0845
17,CTATAGGCTTGGGTTCTAACCTGTTGCCT (site CTATAGGCTAG),0.159
18,CTATATACTTGGGTTCTAACCTGTTGCCA (site CTATATACTTG),0.154
19,CTATATACTTGGGTTCTAACCTGTTGCCA (site CTGTATACTTG),0
20,CTATATACTTGGGTTCTAACCTGTTGCTT (site CTAAATACTAA),0.088
